Data taken from ChEMBL document CHEMBL1201862, “PubChem BioAssay data set” (2004).
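48-hour exposure; five concentrations; linearly interpolated endpoints. Here, GI50 denotes the concentration required for 50% inhibition of growth.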 The source made the active and inactive calls. No stated cut-off is given here; in the data, active = GI50 up to about 1.1 µM and inactive = higher.

Assays:
Assay in all cases: DTP human tumour cell line panel, 48 h
A549 = tested on: A549
ACHN = tested on: ACHN
CAKI-1 = tested on: CAKI-1
COLO 205 = tested on: COLO 205
DLD-1 = tested on: DLD-1
DMS-114 = tested on: DMS-114
DMS-273 = tested on: DMS-273
EKVX = tested on: EKVX
HCT-116 = tested on: HCT-116
HCT-15 = tested on: HCT-15
HOP-18 = tested on: HOP-18
HOP-62 = tested on: HOP-62
HT-29 = tested on: HT-29
IGROV-1 = tested on: IGROV-1
K562 = tested on: K562
KM-20L2 = tested on: KM-20L2
KM12 = tested on: KM12
LOX IMVI = tested on: LOX IMVI
LXFL 529 = tested on: LXFL 529
M14 = tested on: M14
M19-MEL = tested on: M19-MEL
MOLT-4 = tested on: MOLT-4
NCI-H226 = tested on: NCI-H226
NCI-H23 = tested on: NCI-H23
NCI-H460 = tested on: NCI-H460
NCI-H522 = tested on: NCI-H522
OVCAR-3 = tested on: OVCAR-3
OVCAR-4 = tested on: OVCAR-4
OVCAR-5 = tested on: OVCAR-5
OVCAR-8 = tested on: OVCAR-8
RPMI-8226 = tested on: RPMI-8226
RXF 631 = tested on: RXF 631
SF-268 = tested on: SF-268
SF-295 = tested on: SF-295
SF-539 = tested on: SF-539
SK-MEL-28 = tested on: SK-MEL-28
SK-MEL-2 = tested on: SK-MEL-2
SK-MEL-5 = tested on: SK-MEL-5
SNB-19 = tested on: SNB-19
SNB-75 = tested on: SNB-75
SNB-78 = tested on: SNB-78
SR = tested on: SR
SW-620 = tested on: SW-620
TK-10 = tested on: TK-10
U-251 = tested on: U-251
UACC-257 = tested on: UACC-257
UACC-62 = tested on: UACC-62
UO-31 = tested on: UO-31
XF498 = tested on: XF498
786-0 = tested on: 786-0
A498 = tested on: A498
CCRF-CEM = tested on: CCRF-CEM
HCC 2998 = tested on: HCC 2998
HL-60 = tested on: HL-60
HOP-92 = tested on: HOP-92
Malme-3M = tested on: Malme-3M
SK-OV-3 = tested on: SK-OV-3
SN12C = tested on: SN12C
RXF 393 = tested on: RXF 393

For CCCCCCCCCCCCCCCC(=O)OC1C(O)C(CO)OC(OC)C1NC(=O)N(CCCl)N=O (stereo unspecified), the GI50 (A549) was 10.3 µM (inactive), the GI50 (ACHN) was 8.81 µM (inactive) and the GI50 (CAKI-1) was 32 µM (inactive). For the same compound, the GI50 (COLO 205) was 18.7 µM (inactive), the GI50 (DLD-1) was 16.2 µM (inactive) and the GI50 (DMS-114) was 12.1 µM (inactive). For the same compound, the GI50 (DMS-273) was 13.1 µM (inactive), the GI50 (EKVX) was 20.1 µM (inactive) and the GI50 (HCT-116) was 14.3 µM (inactive). For the same compound, the GI50 (HCT-15) was 23.7 µM, the GI50 (HOP-18) was 15.8 µM (inactive) and the GI50 (HOP-62) was 15.4 µM (inactive). The GI50 (HT-29) was 12.8 µM (inactive), the GI50 (IGROV-1) was 17.4 µM (inactive) and the GI50 (K562) was 22.3 µM (inactive). For the same compound, the GI50 (KM-20L2) was 17.9 µM (inactive), the GI50 (KM12) was 16.5 µM (inactive) and the GI50 (LOX IMVI) was 11.4 µM (inactive). The GI50 (LXFL 529) was 12.6 µM (inactive), the GI50 (M14) was 18.4 µM (inactive) and the GI50 (M19-MEL) was 15.9 µM (inactive). For the same compound, the GI50 (MOLT-4) was 3.08 µM (inactive), the GI50 (NCI-H226) was 16.6 µM (inactive) and the GI50 (NCI-H23) was 7.94 µM (inactive). The GI50 (NCI-H460) was 3.78 µM (inactive), the GI50 (NCI-H522) was 10.7 µM (inactive) and the GI50 (OVCAR-3) was 18.7 µM (inactive). The GI50 (OVCAR-4) was 20.6 µM (inactive), the GI50 (OVCAR-5) was 16.5 µM (inactive) and the GI50 (OVCAR-8) was 17.8 µM (inactive). The GI50 (RPMI-8226) was 21.1 µM (inactive), the GI50 (RXF 631) was 16.8 µM (inactive) and the GI50 (SF-268) was 2.64 µM (inactive). For the same compound, the GI50 (SF-295) was 10.6 µM (inactive), the GI50 (SF-539) was 1.08 µM (active) and the GI50 (SK-MEL-28) was 14.2 µM (inactive). The GI50 (SK-MEL-2) was 23.9 µM (inactive), the GI50 (SK-MEL-5) was 13.2 µM (inactive) and the GI50 (SNB-19) was 10.4 µM (inactive). For the same compound, the GI50 (SNB-75) was 12 µM (inactive), the GI50 (SNB-78) was 19.5 µM (inactive) and the GI50 (SR) was 4.46 µM (inactive). For the same compound, the GI50 (SW-620) was 10.9 µM (inactive), the GI50 (TK-10) was 15.5 µM (inactive) and the GI50 (U-251) was 5.22 µM (inactive). The GI50 (UACC-257) was 16.3 µM (inactive), the GI50 (UACC-62) was 2 µM (inactive) and the GI50 (UO-31) was 15.2 µM (inactive). For the same compound, the GI50 (XF498) was 14.6 µM (inactive).
With Clc1ccc(Cl)c2[s+]snc12 the GI50 (786-0) was > 40.9 µM (inactive), the GI50 (A498) was > 100 µM (inactive) and the GI50 (A549) was > 100 µM (inactive). For the same compound, the GI50 (ACHN) was > 79.1 µM (inactive), the GI50 (CAKI-1) was > 100 µM (inactive) and the GI50 (CCRF-CEM) was 50.8 µM (inactive). The GI50 (COLO 205) was > 43.1 µM (inactive), the GI50 (DLD-1) was 44.6 µM (inactive) and the GI50 (DMS-114) was 24.9 µM (inactive). For the same compound, the GI50 (DMS-273) was 27 µM (inactive), the GI50 (EKVX) was > 100 µM (inactive) and the GI50 (HCC 2998) was > 100 µM (inactive). For the same compound, the GI50 (HCT-116) was 21.6 µM (inactive), the GI50 (HCT-15) was 29.4 µM and the GI50 (HL-60) was 50.7 µM (inactive). The GI50 (HOP-18) was > 100 µM (inactive), the GI50 (HOP-62) was > 85.3 µM (inactive) and the GI50 (HOP-92) was > 60.7 µM (inactive). The GI50 (HT-29) was 25 µM (inactive), the GI50 (IGROV-1) was > 100 µM (inactive) and the GI50 (K562) was > 45.8 µM (inactive). The GI50 (KM-20L2) was > 100 µM (inactive), the GI50 (KM12) was > 67.5 µM (inactive) and the GI50 (LOX IMVI) was 31 µM (inactive). The GI50 (LXFL 529) was 34.2 µM (inactive), the GI50 (M14) was 55.6 µM (inactive) and the GI50 (M19-MEL) was 54.7 µM (inactive). For the same compound, the GI50 (MOLT-4) was > 79.6 µM (inactive), the GI50 (Malme-3M) was > 49.5 µM (inactive) and the GI50 (NCI-H226) was > 100 µM (inactive). The GI50 (NCI-H23) was > 100 µM (inactive), the GI50 (NCI-H460) was 30.7 µM (inactive) and the GI50 (NCI-H522) was 18.1 µM (inactive). The GI50 (OVCAR-3) was > 63.5 µM (inactive), the GI50 (OVCAR-4) was > 100 µM (inactive) and the GI50 (OVCAR-5) was > 100 µM (inactive). For the same compound, the GI50 (OVCAR-8) was 40.3 µM (inactive), the GI50 (RPMI-8226) was > 48.6 µM (inactive) and the GI50 (RXF 631) was > 94.6 µM (inactive). For the same compound, the GI50 (SF-268) was 46.8 µM (inactive), the GI50 (SF-295) was > 76.6 µM (inactive) and the GI50 (SF-539) was 46 µM (inactive). For the same compound, the GI50 (SK-MEL-28) was > 100 µM (inactive), the GI50 (SK-MEL-5) was 76 µM (inactive) and the GI50 (SK-OV-3) was > 100 µM (inactive). For the same compound, the GI50 (SN12C) was > 79.3 µM (inactive), the GI50 (SNB-19) was > 93.5 µM (inactive) and the GI50 (SNB-75) was 41.2 µM (inactive). For the same compound, the GI50 (SNB-78) was > 100 µM (inactive), the GI50 (SR) was > 100 µM (inactive) and the GI50 (SW-620) was 23.6 µM (inactive). For the same compound, the GI50 (TK-10) was > 100 µM (inactive), the GI50 (U-251) was 38.6 µM (inactive) and the GI50 (UACC-257) was > 93.3 µM (inactive). For the same compound, the GI50 (UACC-62) was 43.4 µM (inactive), the GI50 (UO-31) was > 100 µM (inactive) and the GI50 (XF498) was > 100 µM (inactive).
In the case of O=C(Nc1ccc(Cl)cc1Cl)C(=O)Nn1c(S)nc2ccccc2c1=O, the GI50 (786-0) is reported as > 100 µM (inactive), the GI50 (A549) is reported as > 100 µM (inactive) and the GI50 (CCRF-CEM) is reported as > 100 µM (inactive). The GI50 (DMS-114) was > 100 µM (inactive), the GI50 (DMS-273) was > 100 µM (inactive) and the GI50 (HCC 2998) was > 100 µM (inactive). For the same compound, the GI50 (HCT-116) was > 100 µM (inactive), the GI50 (HCT-15) was > 100 µM and the GI50 (HL-60) was > 100 µM (inactive). For the same compound, the GI50 (HOP-18) was > 100 µM (inactive), the GI50 (K562) was > 100 µM (inactive) and the GI50 (LXFL 529) was > 100 µM (inactive). The GI50 (M14) was > 100 µM (inactive), the GI50 (M19-MEL) was > 100 µM (inactive) and the GI50 (MOLT-4) was > 100 µM (inactive). The GI50 (Malme-3M) was > 100 µM (inactive), the GI50 (NCI-H460) was > 100 µM (inactive) and the GI50 (NCI-H522) was > 100 µM (inactive). The GI50 (OVCAR-3) was > 100 µM (inactive), the GI50 (RPMI-8226) was > 100 µM (inactive) and the GI50 (RXF 393) was > 100 µM (inactive). For the same compound, the GI50 (RXF 631) was > 100 µM (inactive), the GI50 (SF-268) was > 100 µM (inactive) and the GI50 (SK-MEL-28) was > 100 µM (inactive). The GI50 (SK-MEL-2) was > 100 µM (inactive), the GI50 (SK-OV-3) was > 100 µM (inactive) and the GI50 (SNB-78) was > 100 µM (inactive). For the same compound, the GI50 (SR) was > 100 µM (inactive), the GI50 (U-251) was > 100 µM (inactive) and the GI50 (UO-31) was > 100 µM (inactive).
